One series concerns Beagle dogs. The conditions noted are these: intravenous injection of 0.3% or 0.35% Tween-80; cited from earlier work.
For series [1] the following is noted: cited from earlier work.
Series [2] can be described thus: Investigation on the solubility of cabazitaxel in oils for injection, with low temperature challenge test. In kind it is physicochemical. Details: key to dissolved state in oil for injection: —: Completely insoluble. Conditions: for dissolved state in oil for injection: 70° C. with stirring. The method, then:
In this Test Example, appropriate amounts of cabazitaxel were weighed, respectively placed into medium chain triglyceride for injection, soybean oil, olive oil, castor oil and palm oil at 70° C., and heated with stirring, to observe the dissolved state thereof. The solutions with the drug dissolved were stored at a condition of 4-6° C. for 72 hours, to perform a low temperature challenge test. The appearance changes of the solutions at 72 hours in the low temperature storage were observed.

Here are results for two compounds from US20180153848A1, “CABAZITAXEL FAT EMULSION, AND PREPARATION METHOD AND USE THEREOF” (JIANGSU TASLY DIYI PHARMACEUTICAL CO., LTD., priority 2015, published 2018).

Turning to Tween-80, the “grade of allergic reactions” value in the series on Beagle dogs was at least 3.

As for `CO[C@H]1C(=O)[C@]2(C)[C@@H](OC)C[C@H]3OC[C@@]3(OC(C)=O)[C@H]2[C@H](OC(=O)c2ccccc2)[C@]2(O)C[C@H](OC(=O)[C@H](O)[C@@H](NC(=O)OC(C)(C)C)c3ccccc3)C(C)=C1C2(C)C` [cabazitaxel, 4-acetyloxy-2α-benzoyloxy-5β,20-epoxy-1-hydroxy-7β, 10β-dimethoxy-9-oxotax-11-en-13 α-yl(2R,3S)-3-t-butoxycarbonylamino-2-hydroxy-3-phenylpropionate], the “solubility in ethanol and other organic solvents” value in series [1] was “soluble”. Also, the solubility in water result in series [1] is listed as “almost insoluble”. Further, the “solubility in medium chain triglycerides” value in series [2] was “about 50 mg/g”. The “solubility in medium chain triglyceride for injection” value in series [2] (after storage at low temperature (4-6° C.) for 72 h) was “about 50 mg/g”. Moreover, the “dissolved state in oil for injection” value in series [2] (castor oil, Concentration (mg/g) 10 h) was “cannot be fully dissolved”; in series [2] (castor oil, Concentration (mg/g) 20 h), “—”; in series [2] (castor oil, Concentration (mg/g) 30 h), “—”; in series [2] (castor oil, Concentration (mg/g) 40 h), “—”; in series [2] (castor oil, Concentration (mg/g) 50 h), “—”; in series [2] (castor oil, Concentration (mg/g) 60 h), “—”. Further, the “dissolved state in oil for injection” value is listed as “rapidly dissolved” in series [2] (medium chain triglyceride, Concentration (mg/g) 60 h); “cannot be fully dissolved” in series [2] (olive oil, Concentration (mg/g) 10 h); “—” in series [2] (olive oil, Concentration (mg/g) 20 h); “—” in series [2] (olive oil, Concentration (mg/g) 30 h); “—” in series [2] (olive oil, Concentration (mg/g) 40 h); “—” in series [2] (olive oil, Concentration (mg/g) 50 h). In addition, the “dissolved state in oil for injection” value in series [2] (olive oil, Concentration (mg/g) 60 h) is recorded as “—”; in series [2] (palm oil, Concentration (mg/g) 10 h), “cannot be fully dissolved”; in series [2] (palm oil, Concentration (mg/g) 20 h), “—”; in series [2] (palm oil, Concentration (mg/g) 30 h), “—”; in series [2] (palm oil, Concentration (mg/g) 40 h), “—”; in series [2] (palm oil, Concentration (mg/g) 50 h) it was “—”. Moreover, the “dissolved state in oil for injection” value in series [2] (palm oil, Concentration (mg/g) 60 h) is recorded as “—”; in series [2] (soybean oil, Concentration (mg/g) 10 h) it was “cannot be fully dissolved”; in series [2] (soybean oil, Concentration (mg/g) 20 h), “—”; in series [2] (soybean oil, Concentration (mg/g) 30 h) it was “—”; in series [2] (soybean oil, Concentration (mg/g) 40 h), “—”; in series [2] (soybean oil, Concentration (mg/g) 50 h) it was “—”. The “dissolved state in oil for injection” value in series [2] (soybean oil, Concentration (mg/g) 60 h) is “—”. Besides, the “solubility in long chain oils” value in series [2] (long chain oils such as soybean oil, olive oil, castor oil, palm oil) is given as “less than 10 mg/g”.
